# Measured values published in patent US8901089B2, “Composition comprising an amorphous non-crystalline glass form of roxithromycin” (North-West University, priority 2009, dated 2014).
# Key:
# Format in all cases: physicochemical
# [1] = Chemical stability by HPLC analysis; conditions: after solubility test
# Method: (§1) The concentrations of the five filtrates of Form-II and roxithromycin raw material respectively are determined by HPLC (high performance liquid chromatography) assay. The HPLC assay is performed utilising a mobile phase of 30 g/L ammonium dihydrogen phosphate buffer at pH 5.3. The pH is adjusted with sodium hydroxide solution and 310 ml of the buffer solution is mixed with 690 ml acetonitrile. A Luna C18 150 mm×4.6 mm column is used with a flow rate of 1.0 ml/min and a wavelength of 205 nm. Validation of this method provides a linear regression r^2 of 0.9998.
# [2] = Solubility of Form-II and roxithromycin raw material in three media, HPLC assay; conditions: for solubility at 24 h: 37 °C, thermodynamic from solid
# Method: In further analysis of the novel Form-II, five test tubes with 100 mg of Form-II and 10 ml of one of the following solubility mediums respectively, namely, acetate buffer (pH 4.5), phosphate buffer (pH 6.8) and distilled water were filled.
# The test tubes are then fixed to a rotating axis (54 rpm) and submerged in a water bath at 37 degrees Celsius±2 degrees Celsius for twenty-four hours. The contents of the test tubes are filtered through a 0.45 μm filter and subsequently the respective filtrates are diluted.
# as §1
# [3] = Exposure of Form-II to 50 degrees Celsius at zero and 75% relative humidity (microscopy); conditions: 18 days
# From the text: Form-II was further subjected to a temperature of 50 degrees Celsius at respectively zero (FIG. 3) and 75% relative humidity (FIG. 4) for 18 days.
# [4] = Vapour sorption experiments (moisture isotherm)
# From the text: The sharp increase is attributed to the condensation of water on the sample holder.
Structure (SMILES),chemical stability (HPLC analysis) [1],"solubility ([2]; acetate buffer (pH 4.5), 37 degrees Celsius, twenty-four hours) [µg/mL]","solubility ([2]; distilled water, 37 degrees Celsius, twenty-four hours) [µg/mL]",more soluble than monohydrated roxithromycin (theoretical solubility of 1.8 μg/ml) ([2]; in water) [%],"solubility ([2]; phosphate buffer (pH 6.8), 37 degrees Celsius, twenty-four hours) [µg/mL]",crystallisation ([3]; 75% relative humidity),crystallisation ([3]; zero relative humidity),"increase in weight (moisture isotherm) ([4]; from 70 to 90% RH, attributed to condensation of water on the sample holder)","weight loss upon decreasing the humidity ([4]; from 90 to 0% RH, returned to starting weight) [%]",increase in weight (moisture isotherm) ([4]; relative humidity up to 60% RH),solid state after high levels of moisture ([4]; vapour sorption up to 90% RH),"solubility at 24 h ([2]; pH 4.5, aqueous buffer) [µg/mL]","solubility at 24 h ([2]; pH 6.8, aqueous buffer) [µg/mL]",solubility at 24 h ([2]; water) [µg/mL],"solubility ([2]; pH 4.5, aqueous buffer) [µg/mL]","solubility ([2]; pH 6.8, aqueous buffer) [µg/mL]",solubility ([2]; water) [µg/mL]
"CC[C@H]1OC(=O)[C@H](C)[C@@H](O[C@H]2C[C@@](C)(OC)[C@@H](O)[C@H](C)O2)[C@H](C)[C@@H](O[C@@H]2O[C@H](C)C[C@H](N(C)C)[C@H]2O)[C@](C)(O)C[C@@H](C)C(=NOCOCCOC)[C@H](C)[C@@H](O)[C@]1(C)O [Form-II, 3R,4S,5S,6R,7R,9R,11S,12R,13S,14R-6-[(2S,3R,4S,6R)-4-dimethylamino-3-hydroxy-6-methyloxan-2-yl]oxy-14-ethyl-7,12,13-trihydroxy-4-[(2R,4R,5S,6S)-5-hydroxy-4-methoxy-4,6-dimethyloxan-2-yl]oxy-10-(2-methoxyethoxymethoxyimino)-3,5,7,9,11,13-hexamethyl-1-oxacyclotetradecan-2-one]",chemically stable,762.71 ± 2.6,32.86 ± 3.5,1798,134.4 ± 4.9,no crystallisation,no crystallisation,up to 4%,4,approximately 1.5%,remained amorphous,–,–,–,–,–,–
"CC[C@H]1OC(=O)[C@H](C)[C@@H](O[C@H]2C[C@@](C)(OC)[C@@H](O)[C@H](C)O2)[C@H](C)[C@@H](O[C@@H]2O[C@H](C)C[C@H](N(C)C)[C@H]2O)[C@](C)(O)C[C@@H](C)/C(=N\OCOCCOC)[C@H](C)[C@@H](O)[C@]1(C)O [roxithromycin raw material, roxithromycin]",–,–,–,–,–,–,–,–,–,–,–,370 ± 8.3,74.8 ± 5.1,1.7 ± 0.6,370,74.8,1.8
